Data taken from patent US10472341B2, “Bicyclic tetrahydrothiazepine derivatives useful for the treatment of neoplastic and/or infectious diseases” (APEIRON BIOLOGICS AG, priority 2015, dated 2019).
Where a name gives a salt, the structure may show the parent alone. Read-outs that look alike come from different tables or passages of the source.

Columns and labels:
[1] = tested on: aCD3/aCD28-stimulated human PBMCs; test: Cytokine production in aCD3/aCD28 stimulated human PBMCs; type: cell-based; conditions: PBMC, 18 h
Method in brief: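 Ficoll-isolated human PBMCs at 1e6 cells/mL in X-Vivo15, stimulated with soluble anti-CD3/CD28 (OKT3 and 28.2, 1 μg/mL each) plus compound for 18 h at 37° C. Supernatant cytokines quantified by MSD or HTRF.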

[2] = tested on: non-stimulated PBMCs; test: Non-stimulated PBMCs: cytokine secretion and signs of T-cell activation; type: cell-based, human
Description: This is an important finding for compounds that shall selectively act on T cells which have been activated by presence of antigen from pathogens or tumors, but shall not lead to an unwanted general activation of all T cells of a patient.

[3] = tested on: aCD3/aCD28-stimulated human CD4+-T-cells; test: IL-2 production and activation markers in aCD3/aCD28 stimulated isolated human CD4+-T-cells; type: cell-based; conditions: IL-2 production at 3 μM compound
Method in brief: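 CD4+ T cells isolated from buffy-coat PBMCs by microbeads were plated in Xvivo medium (1.5*10^5 cells/well) and stimulated with anti-CD3/28 mAbs plus compound. IL-2 measured by ELISA in supernatants at 24 h or 48 h; CD25 and proliferation by flow cytometry, CD69 at 24 h. Activity classes based on IL-2 at 3 μM compound.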

[4] = enhancement of IFN-γ production, read-out: Activity Class IFN-γ
[5] = enhancement of IL-2 production, read-out: Activity Class IL-2

Structure (SMILES) | EC50 [1, 4] [µM] | EC50 [1, 5] [µM] | cytokine secretion or other signs of T-cell activation [2] | Activity Class CD4+ [3]
N[C@H]1CS(=O)(=O)c2cc(F)c(C(=O)NC3CC3(F)F)cc2N(Cc2ccc(Cl)cc2)C1=O (stereo partly drawn) [Example 1, (3R)-3-amino-5-[(4-chlorophenyl)methyl]-N-(2,2-difluorocyclopropyl)-8-fluoro-1,1,4-trioxo-2,3,4,5-tetrahydro-1λ^6,5-benzothiazepine-7-carboxamide hydrochloride] | < 1.58 | < 1.58 | did not enhance cytokine secretion or other signs of T-cell activation | A (IL-2 production at 3 μM compound concentration >10 ng/mL)
CCCCNC(=O)c1ccc2c(c1)N(Cc1ccc(OC(F)(F)F)cc1)C(=O)[C@@H](N)CS2(=O)=O.Cl [Example 67, (3R)-3-amino-N-butyl-1,1,4-trioxo-5-{[4-(trifluoromethoxy)phenyl]methyl}-2,3,4,5-tetrahydro-1λ^6,5-benzothiazepine-7-carboxamide hydrochloride] | < 1.58 | < 1.58 | did not enhance cytokine secretion or other signs of T-cell activation | A (IL-2 production at 3 μM compound concentration >10 ng/mL)
Cl.N[C@H]1CS(=O)(=O)c2cc(F)c(C(=O)NCCCC(F)(F)F)cc2N(Cc2ccc(Cl)cc2)C1=O [Example 70, (3R)-3-amino-5-[(4-chlorophenyl)methyl]-8-fluoro-1,1,4-trioxo-N-(4,4,4-trifluoro-butyl)-2,3,4,5-tetrahydro-1λ^6,5-benzothiazepine-7-carboxamide hydrochloride] | < 1.58 | < 1.58 | – | A (IL-2 production at 3 μM compound concentration >10 ng/mL)
CC(C)NC(=O)c1cc2c(cc1F)S(=O)(=O)C[C@H](N)C(=O)N2Cc1ccc(Cl)cc1.Cl [Example 77, (3R)-3-amino-5-[(4-chlorophenyl)methyl]-8-fluoro-1,1,4-trioxo-N-(propan-2-yl)-2,3,4,5-tetrahydro-1λ^6,5-benzothiazepine-7-carboxamide hydrochloride] | 1.58 to 5.01 | 1.58 to 5.01 | did not enhance cytokine secretion or other signs of T-cell activation | C (IL-2 production at 3 μM compound concentration between 2-fold increase as compared to mean IL-2 production of stimulated cells in the absence of compounds and <2 ng/mL)
